In ChEMBL document CHEMBL5058646 (2022) one finds IC50 data, which are given here for one compound.

This experiment addresses B-cell lymphoma 6 protein (Homo sapiens, UniProt P41182). The experiment in a line: TR-FRET. In general terms: In TR-FRET formats the signal depends on donor and acceptor labels being close together.

The structures appear in SMILES notation.

`C[C@@H]1CN(c2nccc(Nc3ccc4c(c3)n(CCC(C)(C)O)c(=O)n4C)n2)C[C@H](C)C1(F)F`: the IC50 (commonly the concentration needed to halve the response being measured) is recorded as 21 µM (not active).
